What was measured:
[1] = Crystal; DTA
[2] = Molar enthalpy of transition or fusion; details: Crystal; DSC
[3] = molar heat capacity at constant pressure; details: 101.33 kPa, Crystal

c1cc2ccc3ccc4ccc5ccc6ccc1c1c2c3c4c5c61 [coronene]
Details	Molar enthalpy of transition or fusion [kcal/mol]	Normal melting temperature [°C]
[1]	–	436
[2]	5.07	–

molar heat capacity at constant pressure [J/K/mol], [3]
Details	DSC	Small sample (50 mg) DSC
295 K	–	312.97
298.15 K	317.46	317.17
300 K	–	318.97
310 K	–	333.99
320 K	–	344.5
330 K	–	355.32
340 K	–	366.43
350 K	–	373.94
360 K	–	383.85
370 K	–	394.66
380 K	–	405.18
410 K	–	417.19
420 K	–	422.3
430 K	–	435.51
440 K	–	439.12
450 K	–	447.82
460 K	–	453.83
470 K	–	463.44
478 K	–	470.65
